Data on 39 compounds can be found in patent US12391686B2, “Compounds and uses thereof” (Foghorn Therapeutics Inc., priority 2019, dated 2025).

This experiment concerns the target T1, Nanoluciferase-BRD9 fusion protein (3×FLAG-NLuc-BRD9) in SYO-1 cells (Homo sapiens, UniProt Q9H8M2).
T1 construct: expressed in transfected cells; host or cells: SYO-1
T1 sequence (Q9H8M2 1-597): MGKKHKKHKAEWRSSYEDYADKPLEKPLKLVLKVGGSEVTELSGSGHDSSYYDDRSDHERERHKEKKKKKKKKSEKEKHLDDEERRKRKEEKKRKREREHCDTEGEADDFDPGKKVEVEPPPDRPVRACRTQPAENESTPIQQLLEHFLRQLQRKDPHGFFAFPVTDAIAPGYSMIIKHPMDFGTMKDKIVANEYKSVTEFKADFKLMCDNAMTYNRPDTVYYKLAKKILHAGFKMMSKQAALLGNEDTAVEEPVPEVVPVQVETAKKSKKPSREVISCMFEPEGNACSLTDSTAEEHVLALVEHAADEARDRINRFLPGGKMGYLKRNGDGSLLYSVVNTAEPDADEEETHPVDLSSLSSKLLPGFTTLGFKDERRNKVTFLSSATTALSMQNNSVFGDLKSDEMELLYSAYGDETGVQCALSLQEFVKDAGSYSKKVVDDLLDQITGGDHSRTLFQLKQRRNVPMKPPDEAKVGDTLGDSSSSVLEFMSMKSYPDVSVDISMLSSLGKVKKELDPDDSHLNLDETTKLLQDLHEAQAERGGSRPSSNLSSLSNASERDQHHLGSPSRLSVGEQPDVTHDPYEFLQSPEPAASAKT
Nature of the experiment: SYO1 BRD9 NanoLuc Degradation Assay. The experiment is classed as cell-based. The conditions noted are these: Table 6B; SYO-1 cells expressing 3×FLAG-NLuc-BRD9, 6 hours incubation, 1 μM top dose; read-out: SYO1 BRD9-NanoLuc degradation IC50. Here is the method:
Procedure: A stable SYO-1 cell line expressing 3×FLAG-NLuc-BRD9 was generated. On day 0 cells were seeded in 30 μL media into each well of 384-well cell culture plates. The seeding density was 8000 cells/well. On day 1, cells were treated with 30 nL DMSO or 30 nL of 3-fold serially DMSO-diluted compounds (10 points in duplicates with 1 μM as final top dose). Subsequently plates were incubated for 6 hours in a standard tissue culture incubator and equilibrated at room temperature for 15 minutes. Nanoluciferase activity was measured by adding 15 μL of freshly prepared Nano-Glo Luciferase Assay Reagent (Promega N1130), shaking the plates for 10 minutes and reading the bioluminescence using an EnVision reader.
Results: The Inhibition % was calculated using the following formula: % Inhibition=100×(LumHC−Lumsample)/(LumHC−LumLC). DMSO treated cells are employed as High Control (HC) and 1 μM of a known BRD9 degrader standard treated cells are employed as Low Control (LC).

SMILES strings stand for the structures.

For `COc1cc(-c2cn(C)c(=O)c3cnc(N(C)C)cc23)cc(OC)c1CN1CCC(C(=O)N2CCC3(CC2)CC(Oc2ccc4c(c2)C(=O)N(C2CCC(=O)NC2=O)C4=O)C3)C(OC)C1` (stereo not drawn) [Compound D111], the DC50 is < 10 nM.
For the compound `CCc1cc(-c2cn(C)c(=O)c3cnc(N(C)C)cc23)cc(OC)c1CN1CCC(CN2CCC3(CC2)CC(Oc2ccc4c(c2)C(=O)N(C2CCC(=O)NC2=O)C4=O)C3)CC1` (stereo not drawn) [Compound D112], the DC50 was < 10 nM.
Consider `COc1cc(-c2cn(C)c(=O)c3cnc(N(C)C)cc23)cc(OC)c1CN1CCN(c2ccc3c(c2)C(=O)N(C2CCC(=O)NC2=O)C3)CC1` (stereo not drawn) [Compound D113], for which the DC50 is < 10 nM.
For `COc1cc(-c2cn(C)c(=O)c3cnc(N(C)C)cc23)cc(OC)c1CN1CCN(c2ccc3c(c2)CN(C2CCC(=O)NC2=O)C3=O)CC1` (stereo not drawn) [Compound D114], the DC50 is < 10 nM.
For `CCN(CC)c1cc2c(-c3cc(OC)c(CN4CCN(CCC5CCN(c6ccc7c(c6)C(=O)N(C6CCC(=O)NC6=O)C7=O)CC5)CC4)c(OC)c3)cn(C)c(=O)c2cn1` (stereo not drawn) [Compound D115], the DC50 was < 10 nM.
On to `COc1cc(-c2cn(C)c(=O)c3cnc(N4CCC4)cc23)cc(OC)c1CN1CC(CN2CCC3(CC2)CN(c2ccc4c(c2)C(=O)N(C2CCC(=O)NC2=O)C4=O)C3)C1` (stereo not drawn) [Compound D116], for which the DC50 is < 10 nM.
In the case of `COc1cc(-c2cn(C)c(=O)c3cnc(N(C)C)cc23)cc(OC)c1CN1CCC(CCCN2CCN(C3CCC(=O)NC3=O)C(=O)C2)CC1` (stereo not drawn) [Compound D117], the DC50 lay within 10 to 100 nM.
For the compound `COc1cc(-c2cn(C)c(=O)c3cnc(N(C)C)cc23)cc(OC)c1CN1CCC(C(=O)N2CCC3(CC2)CC(Oc2cc4c(cc2F)C(=O)N(C2CCC(=O)NC2=O)C4=O)C3)CC1` (stereo not drawn) [Compound D118], the DC50 is < 10 nM.
Regarding `CN(C)c1cc2c(-c3cc(Cl)c(CN4CCC(CN5CCC6(CC5)CC(Oc5ccc7c(c5)C(=O)N(C5CCC(=O)NC5=O)C7=O)C6)CC4)c(Cl)c3)cn(C)c(=O)c2cn1` (stereo not drawn) [Compound D119], the DC50 was in the range of 10 to 100 nM.
The value for `COc1cc(-c2cn(C)c(=O)c3cnc(N(C)C)cc23)cc(OC)c1CN1CCN(CCC2CCN(c3ccc4c(c3)C(=O)N(C3CCC(=O)NC3=O)C4)CC2)CC1` (stereo not drawn) [Compound D120] was < 10 nM; that for `COc1cc(-c2cn(C)c(=O)c3cnc(N(C)C)cc23)cc(OC)c1CN1CCN(CCC2CCN(c3ccc4c(c3)CN(C3CCC(=O)NC3=O)C4=O)CC2)CC1` (stereo not drawn) [Compound D121] was < 10 nM.
`COc1cc(-c2cn(C3CC3)c(=O)c3cnc(N4CCC4)cc23)cc(OC)c1CN1CCC(N2CCN(c3ccc4c(c3)CN(C3CCC(=O)NC3=O)C4=O)CC2)CC1` (stereo not drawn) [Compound D122]: the DC50 was < 10 nM.
With `CCn1cc(-c2cc(OC)c(CN3CCC(N4CCN(c5ccc6c(c5)CN(C5CCC(=O)NC5=O)C6=O)CC4)CC3)c(OC)c2)c2cc(N3CCC3)ncc2c1=O` (stereo not drawn) [Compound D123] the figure was < 10 nM; with `CCN(C)c1cc2c(-c3cc(OC)c(CN4CCN(CCC5CCN(c6ccc7c(c6)C(=O)N(C6CCC(=O)NC6=O)C7=O)CC5)CC4)c(OC)c3)cn(C)c(=O)c2cn1` (stereo not drawn) [Compound D124], < 10 nM.
With `COc1cc(-c2cn(C)c(=O)c3cnc(N(C)C)cc23)cc(OC)c1CN1CCC(CN2CCC3(CC2)CN(c2ccc4c(c2)C(=O)N(C2CCC(=O)NC2=O)C4=O)C3)CC1` (stereo not drawn) [Compound D125] the figure was < 10 nM; with `COc1cc(-c2cn(C)c(=O)c3cnc(N4CCC4)cc23)cc(OC)c1CN1CCC2(CC1)CN(c1ccc3c(c1)C(=O)N(C1CCC(=O)NC1=O)C3=O)C2` (stereo not drawn) [Compound D126], < 10 nM; with `COc1cc(-c2cn(C)c(=O)c3cnc(N(C)C)cc23)cc(OC)c1CN1CCC2(CC1)CN(c1ccc3c(c1)CN(C1CCC(=O)NC1=O)C3=O)C2` (stereo not drawn) [Compound D127], < 10 nM.
Take `COc1cc(-c2cn(C)c(=O)c3cnc(N(C)C)cc23)cc(OC)c1CN1CCC2(CC1)CN(c1ccc3c(c1)C(=O)N(C1CCC(=O)NC1=O)C3)C2` (stereo not drawn) [Compound D128]: the DC50 was < 10 nM.
`COc1cc(-c2cn(C)c(=O)c3cnc(N(C)C)cc23)cc(OC)c1CN1CCC(CN2CCC3(CC2)CC(Oc2cc4c(cc2F)C(=O)N(C2CCC(=O)NC2=O)C4=O)C3)CC1` (stereo not drawn) [Compound D129]: the DC50 is < 10 nM.
As for `COc1cc(-c2cn(C)c(=O)c3cnc(N(C)C)cc23)cc(OC)c1CN1CCC(CN2CCC3(CC2)CC(Oc2ccc4c(c2)C(=O)N(C2CCC(=O)NC2=O)C4=O)C3)C(OC)C1` (stereo not drawn) [Compound D130], the DC50 was < 10 nM.
The value for `COc1cc(-c2cn(C)c(=O)c3cnc(N4CCC4)cc23)cc(OC)c1CN1CCC(N2CCN(c3ccc4c(c3)CN(C3CCC(=O)NC3=O)C4=O)CC2)CC1` (stereo not drawn) [Compound D131] was < 10 nM; that for `COc1cc(-c2cn(C)c(=O)c3cnc(N(C)C)cc23)cc(OC)c1CN1CC(c2ccc3c(c2)C(=O)N(C2CCC(=O)NC2=O)C3=O)C1` (stereo not drawn) [Compound D132] was < 10 nM; that for `COc1cc(-c2cn(C)c(=O)c3cnc(N(C)C)cc23)cc(OC)c1CC1CCN(c2ccc3c(c2)C(=O)N(C2CCC(=O)NC2=O)C3=O)CC1` (stereo not drawn) [Compound D133] was < 10 nM.
Turning to `C=CCn1cc(-c2cc(OC)c(CN3CCN(CCC4CCN(c5ccc6c(c5)C(=O)N(C5CCC(=O)NC5=O)C6=O)CC4)CC3)c(OC)c2)c2cc(N(C)C)ncc2c1=O` (stereo not drawn) [Compound D134], the DC50 is < 10 nM.
As for `C=CCCn1cc(-c2cc(OC)c(CN3CCN(CCC4CCN(c5ccc6c(c5)C(=O)N(C5CCC(=O)NC5=O)C6=O)CC4)CC3)c(OC)c2)c2cc(N(C)C)ncc2c1=O` (stereo not drawn) [Compound D135], the DC50 was < 10 nM.
In the case of `COc1cc(-c2cn(C)c(=O)c3cnc(N4CCC4)cc23)cc(OC)c1CN1CCC(CN2CCC3(CC2)CN(c2ccc4c(c2)C(=O)N(C2CCC(=O)NC2=O)C4=O)C3)CC1` (stereo not drawn) [Compound D136], the DC50 is < 10 nM.
Turning to `COc1cc(-c2cn(C)c(=O)c3cnc(N4CCC4)cc23)cc(OC)c1CN1CC(Oc2ccc3c(c2)C(=O)N(C2CCC(=O)NC2=O)C3=O)C1` (stereo not drawn) [Compound D137], the DC50 was < 10 nM.
Consider `COc1cc(-c2cn(C)c(=O)c3cnc(N(C)C)cc23)cc(OC)c1CN1CC(Oc2ccn3c(=O)n(C4CCC(=O)NC4=O)nc3c2)C1` (stereo not drawn) [Compound D138], for which the DC50 is < 10 nM.
`C/C=C/n1cc(-c2cc(OC)c(CN3CCN(CCC4CCN(c5ccc6c(c5)C(=O)N(C5CCC(=O)NC5=O)C6=O)CC4)CC3)c(OC)c2)c2cc(N(C)C)ncc2c1=O` (stereo not drawn) [Compound D139]: the DC50 is < 10 nM.
`CCc1cc(-c2cn(C)c(=O)c3cnc(N(C)C)cc23)cc(Cl)c1CN1CCC(CN2CCC3(CC2)CC(Oc2ccc4c(c2)C(=O)N(C2CCC(=O)NC2=O)C4=O)C3)CC1` (stereo not drawn) [Compound D140]: the DC50 was < 10 nM.
On to `COc1cc(-c2cn(C)c(=O)c3cnc(N4CCOCC4)cc23)cc(OC)c1CN1CCN(c2ccc3c(c2)C(=O)N(C2CCC(=O)NC2=O)C3=O)CC1` (stereo not drawn) [Compound D141], for which the DC50 was < 10 nM.
For the compound `COc1cc(-c2cn(C)c(=O)c3cnc(N4CCC4)cc23)cc(OC)c1CN1CCC2(CC1)CN(c1ccc3c(c1)C(=O)N(C1CCC(=O)NC1=O)C3)C2` (stereo not drawn) [Compound D142], the DC50 was < 10 nM.
Regarding `COc1cc(-c2cn(C)c(=O)c3cnc(N(C)C)cc23)cc(OC)c1CN1CC(CN2CCC3(CC2)CN(c2ccc4c(c2)CN(C2CCC(=O)NC2=O)C4=O)C3)C1` (stereo not drawn) [Compound D143], the DC50 was < 10 nM.
The value for `COc1cc(-c2cn(C)c(=O)c3cnc(N4CCOCC4)cc23)cc(OC)c1CN1CC(Oc2ccn3c(=O)n(C4CCC(=O)NC4=O)nc3c2)C1` (stereo not drawn) [Compound D144] was < 10 nM.
For the compound `COc1cc(-c2cn(C)c(=O)c3cnc(N(C)C)cc23)c(OC)cc1CN1CCN(CCC2CCN(c3ccc4c(c3)C(=O)N(C3CCC(=O)NC3=O)C4=O)CC2)CC1` (stereo not drawn) [Compound D145], the DC50 was < 10 nM.
Turning to `COc1cc(-c2cn(C)c(=O)c3cnc(N4CCC4)cc23)cc(OC)c1CN1CC(c2ccc3c(c2)C(=O)N(C2CCC(=O)NC2=O)C3=O)C1` (stereo not drawn) [Compound D146], the DC50 was < 10 nM.
Take `COc1cc(-c2cn(C)c(=O)c3cnc(N4CCOCC4)cc23)c(OC)cc1CN1CC(CN2CCC3(CC2)CN(c2ccc4c(c2)C(=O)N(C2CCC(=O)NC2=O)C4)C3)C1` (stereo not drawn) [Compound D147]: the DC50 is < 10 nM.
For the compound `COc1cc(-c2cn(C)c(=O)c3cnc(N4CCC4)cc23)ccc1CN1CCC2(CC1)CN(c1ccc3c(c1)CN(C1CCC(=O)NC1=O)C3=O)C2` (stereo not drawn) [Compound D148], the DC50 is < 10 nM.
Consider `COc1cc(-c2cn(C)c(=O)c3cnc(N4CCC4)cc23)ccc1CN1CCC2(CC1)CN(c1ccc3c(c1)C(=O)N(C1CCC(=O)NC1=O)C3)C2` (stereo not drawn) [Compound D149], for which the DC50 is < 10 nM.
